pIC50: −log10 of the molar value.
What was measured:
[1] = system: M. abscessus infection; settings: mouse model of M. abscessus infection, intrapulmonary delivery; cited from earlier work
[2] = parameters: species or system mice; settings: mouse, in vivo
[3] = system: mmpL3; settings: in both Mabs and Mtb; cited from earlier work
[4] = system: CYP2B6, CYP2C8, CYP2C9, CYP2C19, CYP2D6, CYP3A4; experiment: CYP inhibition, in vitro panel of six common isoforms; assay type: biochemical; settings: human
[5] = Cytotoxicity towards HepG2 cell line; assay type: cell-based; settings: human, HepG2 cells
[6] = molecular target: CYP3A4 (Homo sapiens, UniProt P08684); experiment: CYP inhibition, CYP3A4; assay type: biochemical
[7] = system: Mabs; settings: for 3 days; cited from earlier work
[8] = system: Mycobacterium avium complex; experiment: MIC against Mycobacterium avium complex; assay type: cell-based; settings: MAC; listed as CRS400393
[9] = molecular target: T1, CYP2B6 (Homo sapiens, UniProt P20813); experiment: CYP inhibition, CYP2B6; assay type: biochemical
T1 sequence (P20813 1-491): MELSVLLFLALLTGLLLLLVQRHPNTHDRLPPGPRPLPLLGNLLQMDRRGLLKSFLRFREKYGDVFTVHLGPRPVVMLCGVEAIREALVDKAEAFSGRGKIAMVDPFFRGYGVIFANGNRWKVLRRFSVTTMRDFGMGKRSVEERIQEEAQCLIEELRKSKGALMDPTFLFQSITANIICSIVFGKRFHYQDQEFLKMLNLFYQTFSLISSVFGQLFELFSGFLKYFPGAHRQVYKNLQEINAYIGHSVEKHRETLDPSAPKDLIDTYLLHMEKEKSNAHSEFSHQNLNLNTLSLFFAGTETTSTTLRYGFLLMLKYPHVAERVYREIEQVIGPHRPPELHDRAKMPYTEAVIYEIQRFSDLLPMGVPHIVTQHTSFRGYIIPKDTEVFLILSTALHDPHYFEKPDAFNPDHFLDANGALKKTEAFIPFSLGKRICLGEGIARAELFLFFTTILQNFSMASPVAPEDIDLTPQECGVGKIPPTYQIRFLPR

CYP3A4, sequence (P08684 whole entry): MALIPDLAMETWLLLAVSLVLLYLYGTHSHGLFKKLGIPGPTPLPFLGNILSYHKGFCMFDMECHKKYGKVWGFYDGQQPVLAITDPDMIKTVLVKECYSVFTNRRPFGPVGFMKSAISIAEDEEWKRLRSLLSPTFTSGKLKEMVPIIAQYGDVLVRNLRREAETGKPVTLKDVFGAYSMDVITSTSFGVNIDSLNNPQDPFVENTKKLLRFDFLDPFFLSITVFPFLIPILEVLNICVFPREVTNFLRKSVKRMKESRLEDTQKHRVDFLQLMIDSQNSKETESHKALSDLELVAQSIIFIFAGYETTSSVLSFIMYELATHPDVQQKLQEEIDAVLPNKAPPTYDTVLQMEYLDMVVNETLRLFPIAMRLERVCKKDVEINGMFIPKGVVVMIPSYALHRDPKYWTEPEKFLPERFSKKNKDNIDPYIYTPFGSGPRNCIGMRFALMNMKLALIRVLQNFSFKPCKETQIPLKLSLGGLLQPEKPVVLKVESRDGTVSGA

## CC12CC3CC(C)(C1)CC(C(=O)Nc1nc4ccc(OC(F)(F)F)cc4s1)(C3)C2 [CRS400226]
[1]
  in vivo efficacy: demonstrated in vivo efficacy

## CC1CC(C(=O)Nc2nc3c(F)cc(F)cc3s2)CC(C)(C)C1 (stereo not drawn) [Compound 18]
[2]
  single dose toxicity observation: All mice appeared normal with no abnormal behavior observed
[3]
  effect on transfer of mycolic acids to cell envelope acceptors: affect the transfer of mycolic acids

## CC1CC(C(=O)Nc2nc3ccc(OC(F)(F)F)cc3s2)CC(C)(C)C1 (stereo not drawn) [Compound 32]
[4]
  pIC50: < 4.70
[3]
  effect on transfer of mycolic acids to cell envelope acceptors: affect the transfer of mycolic acids
[5]
  pIC50: < 4.00

## CC12CCCC(C(=O)Nc3nc4cc(Cl)cc(Cl)c4s3)(CCC1)C2 [Compound 43]
[6]
  inhibition at 10 µM: ≤ 50%
[7]
  time kill: effect against Mabs: bacteriostatic
[8]
  MIC against Mycobacterium avium complex: 1 to 2 µg/mL
[9]
  inhibition at 10 µM: ≤ 50%

## CC12CCCC(C(=O)Nc3nc4ccc(OC(F)(F)F)cc4s3)(CCC1)C2 [Compound 52]
[6]
  inhibition at 10 µM: ≤ 50%
[9]
  inhibition at 10 µM: ≤ 50%
